Measurements published in ChEMBL document CHEMBL4308841, “Synthesis, in vitro antiproliferative activity, and kinase inhibitory effects of pyrazole-containing diarylureas and diarylamides” (Eur J Med Chem, 2018).

Experiments:
MOLT-4 = assay: Growth inhibition of human MOLT4 cells incubated for 48 hrs by sulforhodamine B assay; assay type: functional, cell-based; details: MOLT-4, 48 h
SR [1] = assay: Growth inhibition of human SR cells incubated for 48 hrs by sulforhodamine B assay; assay type: functional, cell-based
SK-MEL-2 = assay: Growth inhibition of human SK-MEL-2 cells incubated for 48 hrs by sulforhodamine B assay; assay type: functional, cell-based; details: SK-MEL-2, 48 h
OVCAR-8 = assay: Growth inhibition of human OVCAR8 cells incubated for 48 hrs by sulforhodamine B assay; assay type: functional, cell-based; details: OVCAR-8, 48 h
CAKI-1 = assay: Growth inhibition of human Caki1 cells incubated for 48 hrs by sulforhodamine B assay; assay type: functional, cell-based; details: CAKI-1, 48 h
NCI-H226 [2] = assay: Growth inhibition of human NCI-H226 cells assessed as cell growth at 0.01 uM incubated for 48 hrs by sulforhodamine B assay relative to control; assay type: functional; details: NCI-H226, 48 h, read-out: Activity
HCC 2998 [3] = assay: Growth inhibition of human HCC2998 cells assessed as cell growth at 0.01 uM incubated for 48 hrs by sulforhodamine B assay relative to control; assay type: functional; details: HCC 2998, 48 h, read-out: Activity
HCT-116 = assay: Growth inhibition of human HCT116 cells assessed as cell growth at 0.01 uM incubated for 48 hrs by sulforhodamine B assay relative to control; assay type: functional; details: HCT-116, 48 h, read-out: Activity
RPMI-8226 = assay: Growth inhibition of human RPMI8226 cells assessed as cell growth at 0.1 uM incubated for 48 hrs by sulforhodamine B assay relative to control; assay type: functional; details: RPMI-8226, 48 h, read-out: Activity
NCI-H226 [4] = assay: Growth inhibition of human NCI-H226 cells assessed as cell growth at 0.1 uM incubated for 48 hrs by sulforhodamine B assay relative to control; assay type: functional; details: NCI-H226, 48 h, read-out: Activity
U-251 = assay: Growth inhibition of human U251 cells assessed as cell growth at 0.1 uM incubated for 48 hrs by sulforhodamine B assay relative to control; assay type: functional; details: U-251, 48 h, read-out: Activity
OVCAR-5 = assay: Growth inhibition of human OVCAR5 cells assessed as cell growth at 0.1 uM incubated for 48 hrs by sulforhodamine B assay relative to control; assay type: functional; details: OVCAR-5, 48 h, read-out: Activity
RXF 393 = assay: Growth inhibition of human RXF393 cells assessed as cell growth at 0.1 uM incubated for 48 hrs by sulforhodamine B assay relative to control; assay type: functional; details: RXF 393, 48 h, read-out: Activity
BT-549 [5] = assay: Growth inhibition of human BT549 cells assessed as cell growth at 0.1 uM incubated for 48 hrs by sulforhodamine B assay relative to control; assay type: functional; details: BT-549, 48 h, read-out: Activity
SR [6] = assay: Growth inhibition of human SR cells assessed as cell growth at 1 uM incubated for 48 hrs by sulforhodamine B assay relative to control; assay type: functional; details: read-out: Activity
HCC 2998 [7] = assay: Growth inhibition of human HCC2998 cells assessed as cell growth at 1 uM incubated for 48 hrs by sulforhodamine B assay relative to control; assay type: functional; details: HCC 2998, 48 h, read-out: Activity
SF-539 = assay: Growth inhibition of human SF539 cells assessed as cell growth at 1 uM incubated for 48 hrs by sulforhodamine B assay relative to control; assay type: functional; details: SF-539, 48 h, read-out: Activity
SNB-19 = assay: Growth inhibition of human SNB19 cells assessed as cell growth at 1 uM incubated for 48 hrs by sulforhodamine B assay relative to control; assay type: functional; details: SNB-19, 48 h, read-out: Activity
M14 = assay: Growth inhibition of human M14 cells assessed as cell growth at 1 uM incubated for 48 hrs by sulforhodamine B assay relative to control; assay type: functional; details: M14, 48 h, read-out: Activity
OVCAR-3 = assay: Growth inhibition of human OVCAR3 cells assessed as cell growth at 1 uM incubated for 48 hrs by sulforhodamine B assay relative to control; assay type: functional; details: OVCAR-3, 48 h, read-out: Activity
UO-31 = assay: Growth inhibition of human UO31 cells assessed as cell growth at 1 uM incubated for 48 hrs by sulforhodamine B assay relative to control; assay type: functional; details: UO-31, 48 h, read-out: Activity
MCF7 [8] = assay: Growth inhibition of human MCF7 cells assessed as cell growth at 1 uM incubated for 48 hrs by sulforhodamine B assay relative to control; assay type: functional; details: MCF7, 48 h, read-out: Activity
K562 = assay: Growth inhibition of human K562 cells assessed as cell growth at 100 uM incubated for 48 hrs by sulforhodamine B assay relative to control; assay type: functional; details: K562, 48 h, read-out: Activity
HCC 2998 [9] = assay: Growth inhibition of human HCC2998 cells assessed as cell growth at 100 uM incubated for 48 hrs by sulforhodamine B assay relative to control; assay type: functional; details: HCC 2998, 48 h, read-out: Activity
MDA-MB-435 = assay: Growth inhibition of human MDA-MB-435 cells assessed as cell growth at 100 uM incubated for 48 hrs by sulforhodamine B assay relative to control; assay type: functional; details: MDA-MB-435, 48 h, read-out: Activity
A498 = assay: Growth inhibition of human A498 cells assessed as cell growth at 100 uM incubated for 48 hrs by sulforhodamine B assay relative to control; assay type: functional; details: A498, 48 h, read-out: Activity
SN12C = assay: Growth inhibition of human SN12C cells assessed as cell growth at 100 uM incubated for 48 hrs by sulforhodamine B assay relative to control; assay type: functional; details: read-out: Activity
MCF7 [10] = assay: Growth inhibition of human MCF7 cells assessed as cell growth at 100 uM incubated for 48 hrs by sulforhodamine B assay relative to control; assay type: functional; details: MCF7, 48 h, read-out: Activity
BT-549 [11] = assay: Growth inhibition of human BT549 cells assessed as cell growth at 100 uM incubated for 48 hrs by sulforhodamine B assay relative to control; assay type: functional; details: BT-549, 48 h, read-out: Activity
MDA-MB-468 = assay: Growth inhibition of human MDA-MB-468 cells assessed as cell growth at 100 uM incubated for 48 hrs by sulforhodamine B assay relative to control; assay type: functional; details: MDA-MB-468, 48 h, read-out: Activity
[12] = read-out: LC50 (the source's name)
[13] = read-out: pLC50 (the source's name) (converted)

COc1cc(Cl)cc(-c2nn(-c3cccc(NC(=O)Nc4ccc(Cl)c(C(F)(F)F)c4)c3)cc2-c2ccncc2)c1
GI50 (MOLT-4; read-out: GI50): 1.23 µM
CC50 (MOLT-4; [12]): > 100 µM
TGI (MOLT-4; read-out: TGI): 45.5 µM
GI50 (MOLT-4; read-out: pGI50 (converted)): 1.23 µM
CC50 (MOLT-4; [13]): > 100 µM
TGI (MOLT-4; read-out: pTGI (converted)): 4.68 µM
GI50 (SR [1]; read-out: GI50): 1.06 µM
CC50 (SR [1]; [12]): > 100 µM
TGI (SR [1]; read-out: TGI): 43.8 µM
GI50 (SR [1]; read-out: pGI50 (converted)): 1.07 µM
CC50 (SR [1]; [13]): > 100 µM
TGI (SR [1]; read-out: pTGI (converted)): 4.37 µM
GI50 (SK-MEL-2; read-out: GI50): 1.79 µM
CC50 (SK-MEL-2; [12]): 9.59 µM
TGI (SK-MEL-2; read-out: TGI): 42.1 µM
GI50 (SK-MEL-2; read-out: pGI50 (converted)): 1.78 µM
CC50 (SK-MEL-2; [13]): 10 µM
TGI (SK-MEL-2; read-out: pTGI (converted)): 4.37 µM
GI50 (OVCAR-8; read-out: GI50): 0.739 µM
CC50 (OVCAR-8; [12]): > 100 µM
TGI (OVCAR-8; read-out: TGI): 59.3 µM
GI50 (OVCAR-8; read-out: pGI50 (converted)): 0.741 µM
CC50 (OVCAR-8; [13]): > 100 µM
TGI (OVCAR-8; read-out: pTGI (converted)): 7.08 µM
GI50 (CAKI-1; read-out: GI50): 0.615 µM
CC50 (CAKI-1; [12]): > 100 µM
TGI (CAKI-1; read-out: TGI): 94.3 µM
GI50 (CAKI-1; read-out: pGI50 (converted)): 0.813 µM
CC50 (CAKI-1; [13]): > 100 µM
TGI (CAKI-1; read-out: pTGI (converted)): 10.2 µM
growth at 0.01 µM (NCI-H226 [2]): 97%
growth at 0.01 µM (HCC 2998 [3]): 95%
growth at 0.01 µM (HCT-116): 104%
growth at 0.1 µM (RPMI-8226): 100%
growth at 0.1 µM (NCI-H226 [4]): 96%
growth at 0.1 µM (U-251): 92%
growth at 0.1 µM (OVCAR-5): 73%
growth at 0.1 µM (RXF 393): 96%
growth at 0.1 µM (BT-549 [5]): 99%
growth at 1 µM (SR [6]): 53%
growth at 1 µM (HCC 2998 [7]): 97%
growth at 1 µM (SF-539): 75%
growth at 1 µM (SNB-19): 87%
growth at 1 µM (M14): 65%
growth at 1 µM (OVCAR-3): 24%
growth at 1 µM (UO-31): 64%
growth at 1 µM (MCF7 [8]): 50%
growth at 100 µM (K562): -51%
growth at 100 µM (HCC 2998 [9]): -75%
growth at 100 µM (MDA-MB-435): -40%
growth at 100 µM (A498): -70%
growth at 100 µM (SN12C): -43%
growth at 100 µM (MCF7 [10]): -8%
growth at 100 µM (BT-549 [11]): -68%
growth at 100 µM (MDA-MB-468): -27%
